“And” between values parts separate entries of the source, which are not always exact repeats. Equal values may be shown once. Where a name gives a salt, the structure may show the parent alone.
Tests used:
[1] = system: DHT-induced AGA mice; experiment: Hair regrowth in DHT-induced AGA mice model (topical, 28 days); assay type: in vivo, C57BL/6J mice
Protocol: (§1) C57BL/6 J mice (male) were obtained from CSIR-IIIM Animal House at 7 weeks of age. We used a DHT-induced AGA mice model for this study. […] At the end of the experiment, skin samples were collected and preserved in 10% neutral buffered formalin for tissue sectioning and staining using haematoxylin and eosin (H&E). The histopathological examinations were performed under the 10× and 40× objectives of light microscope (Magnus, Mx21i).
Dorsal skin samples from C57BL/6J mice were shaved and collected for histological and molecular analyses on Days 7, 14, 21, and 28. The full-thickness skin tissue was fixed in a 10% neutral buffered formalin solution (Sigma) overnight and subsequently dehydrated for embedding in paraffin. Haematoxylin and eosin (H&E) staining was performed on the skin tissue, and digital photomicrographs were taken from the representative areas using light microscope (Magnus, Mx21i).
The quantification of anagen initiation was assessed by observing changes in the dorsal skin colour of C57BL/6 mice, a phenomenon closely linked to the onset of the anagen phase. Anagen quantification was done by employing threshold analysis on dorsal skin colouration using ImageJ. The darkening of the skin, attributed to melanogenesis, strongly correlates with the progression of anagen. This analysis is visually depicted as a heatmap using GraphPad Prism 9.5 Software.

[2] = Body weight, biochemical and haematological parameters in DHT-induced AGA mice (0.5% testosterone then topical treatment); assay type: in vivo, C57BL/6J mice; conditions: for LYMPH: unit assumed
Protocol: The experiments were performed on C57BL/6 J and Athymic nude mice (NU/J Foxn1^nu) of 6–7 weeks of age obtained from Animal House Facility, CSIR-Indian Institute of Integrative Medicine (IIIM), Jammu, India. […] The animals were provided with ad libitum feed (standard pellet diet) and autoclaved RO water throughout the study. The body weight of mice was measured after seven days before treatment.
as §1
Every two weeks during the experimental period, mice were anesthetized, and the blood samples were collected into tubes containing heparin sodium to detect the total and differential white blood cells, haemoglobin, red blood cell, platelet count, mean corpuscular haemoglobin, mean corpuscular volume, red blood cell volume, mean platelet volume, and analyzed using an automated haematology analyzer (Model: XT1800i; Make: Sysmex).
Every two weeks during the experimental period, mice and rats were anesthetized, and blood samples were collected into non-heparinized tubes and then centrifuged at 1000 rpm at 4 °C for 10 min to obtain the serum. The biochemical parameters, including total protein, aspartate aminotransferase, alanine aminotransferase, total protein, albumin, total bilirubin, direct bilirubin, glucose, total cholesterol, triglyceride, low-density lipoprotein, high-density lipoprotein, creatinine, and uric acid, were measured using an automatic biochemical analyzer (Model: EM360; Make: Erba Mannheim).

[3] = system: athymic nude mice (NU/J Foxn1nu); experiment: Hair growth in athymic nude mice (topical, 28 days); assay type: in vivo; conditions: for H&E skin histopathology finding / hair follicle grade: day 28
Protocol: The groups are as follows: Group 1-Control (untreated), Group 2-Vehicle control, Group 3-tofacitinib citrate (0.8 mg/Kg), Group 4-tofacitinib citrate (0.08 mg/Kg), Group 5-MJ04 (0.08 mg/Kg), Group 6-MJ04 (0.04 mg/Kg), Group 7-MJ04 (0.016 mg/Kg), Group 8-baricitinib (0.1 mg/Kg), Group 9-baricitinib (0.04 mg/Kg), and Group 10-baricitinib (0.02 mg/Kg). At the end of the experiment, skin samples were collected and preserved in 10% neutral buffered formalin for tissue sectioning and staining using haematoxylin and eosin (H&E). The histopathological examinations were performed under the 10× and 40× objectives of light microscope (Magnus, Mx21i), and hair follicles were graded on a scale of 0 to 4 (++++).
The skin samples collected from athymic nude mice (NU/J Foxn1^nu) were preserved in 10% neutral buffered formalin and processed for tissue sectioning. The skin sections (10 µm) of nude mice were stained using haematoxylin and eosin (H&E) and viewed under 10× and 40× objectives of the light microscope (Magnus, Mx21i). The histopathological examination of the samples was performed, and the hair follicles in the skin sections were graded on a scale of 0 to 4 (++++).

[4] = Body weight of athymic nude mice during topical treatment; assay type: in vivo, athymic nude mice (NU/J Foxn1nu); conditions: individual mice
Protocol: . The groups are as follows: Group 1-Control (untreated), Group 2-Vehicle control, Group 3-tofacitinib citrate (0.8 mg/Kg), Group 4-tofacitinib citrate (0.08 mg/Kg), Group 5-MJ04 (0.08 mg/Kg), Group 6-MJ04 (0.04 mg/Kg), Group 7-MJ04 (0.016 mg/Kg), Group 8-baricitinib (0.1 mg/Kg), Group 9-baricitinib (0.04 mg/Kg), and Group 10-baricitinib (0.02 mg/Kg). At the end of the experiment, skin samples were collected and preserved in 10% neutral buffered formalin for tissue sectioning and staining using haematoxylin and eosin (H&E). […]

C[C@@H]1CCN(C(=O)CC#N)C[C@@H]1N(C)c1ncnc2[nH]ccc12 [Tofacitinib, tofacitinib citrate, reference compound]
H&E skin histopathology finding ([1]; 0.08mg/kg, Days 7, 14, 21, 28): Minimal epidermal thinning with few hair follicles on Days 7 and 14 and increased hair follicles on Days 21 and 28
hair follicle phase (histopathology) ([1]; skin samples days 7, 14, 21, 28): at least in the anagen IIIc-IV phase
entry into the anagen phase ([1]; topical once a day in presence of testosterone): rapid entry into the anagen phase within seven days of treatment
mice displaying intense skin darkening followed by hair growth ([1]; within 10 days of treatment): around 90%
ALP ([2]; Day 21, 0.08 mg/Kg): 198 U/L
ALT/SGPT ([2]; Day 21, 0.08 mg/Kg): 82 U/L
AST/SGOT ([2]; Day 21, 0.08 mg/Kg): 80 U/L
Cholesterol ([2]; Day 21, 0.08 mg/Kg): 216 mg/dL
Creatine ([2]; Day 21, 0.08 mg/Kg): 0.49 mg/dL
HCT ([2]; Day 21, 0.08 mg/Kg): 45%
HDL ([2]; Day 21, 0.08 mg/Kg): 110 mg/dL
LDL ([2]; Day 21, 0.08 mg/Kg): 134 mg/dL
MCHC ([2]; Day 21, 0.08 mg/Kg): 28 g/dL
MCV ([2]; Day 21, 0.08 mg/Kg): 51 fL
NEUT ([2]; Day 21, 0.08 mg/Kg): 20.2%
PLT ([2]; Day 21, 0.08 mg/Kg): 587 103/μl
RBC ([2]; Day 21, 0.08 mg/Kg): 9.2 1012/l
Total protein ([2]; Day 21, 0.08 mg/Kg): 5.0 g/dL
Triglyceride ([2]; Day 21, 0.08 mg/Kg): 141 mg/dL
Urea ([2]; Day 21, 0.08 mg/Kg): 49 mg/dL
WBC ([2]; Day 21, 0.08 mg/Kg): 3.0 103/μl
LYMPH ([2]; Day 21, 0.08 mg/Kg): 78.8%
ALP ([2]; Day 21, 0.8 mg/Kg): 132 U/L
ALT/SGPT ([2]; Day 21, 0.8 mg/Kg): 56 U/L
AST/SGOT ([2]; Day 21, 0.8 mg/Kg): 111 U/L
Cholesterol ([2]; Day 21, 0.8 mg/Kg): 211 mg/dL
Creatine ([2]; Day 21, 0.8 mg/Kg): 0.63 mg/dL
HCT ([2]; Day 21, 0.8 mg/Kg): 42%
HDL ([2]; Day 21, 0.8 mg/Kg): 116 mg/dL
LDL ([2]; Day 21, 0.8 mg/Kg): 126 mg/dL
MCHC ([2]; Day 21, 0.8 mg/Kg): 29 g/dL
MCV ([2]; Day 21, 0.8 mg/Kg): 52 fL
NEUT ([2]; Day 21, 0.8 mg/Kg): 21.5%
PLT ([2]; Day 21, 0.8 mg/Kg): 917 103/μl
RBC ([2]; Day 21, 0.8 mg/Kg): 8.1 1012/l
Total protein ([2]; Day 21, 0.8 mg/Kg): 5.2 g/dL
Triglyceride ([2]; Day 21, 0.8 mg/Kg): 118 mg/dL
Urea ([2]; Day 21, 0.8 mg/Kg): 71 mg/dL
WBC ([2]; Day 21, 0.8 mg/Kg): 1.7 103/μl
LYMPH ([2]; Day 21, 0.8 mg/Kg): 77.9%
ALP ([2]; Day 28, 0.08 mg/Kg): 199 U/L
ALT/SGPT ([2]; Day 28, 0.08 mg/Kg): 177 U/L
AST/SGOT ([2]; Day 28, 0.08 mg/Kg): 136 U/L
Cholesterol ([2]; Day 28, 0.08 mg/Kg): 238 mg/dL
Creatine ([2]; Day 28, 0.08 mg/Kg): 0.13 mg/dL
HCT ([2]; Day 28, 0.08 mg/Kg): 47.0%
HDL ([2]; Day 28, 0.08 mg/Kg): 133 mg/dL
HGB ([2]; Day 28, 0.08 mg/Kg): 14 g/dL
LDL ([2]; Day 28, 0.08 mg/Kg): 111 mg/dL
MCHC ([2]; Day 28, 0.08 mg/Kg): 29.0 g/dL
MCV ([2]; Day 28, 0.08 mg/Kg): 58.0 fL
PLT ([2]; Day 28, 0.08 mg/Kg): 1475 103/μl
RBC ([2]; Day 28, 0.08 mg/Kg): 8.1 106/μl
Total protein ([2]; Day 28, 0.08 mg/Kg): 6.5 g/dL
Triglyceride ([2]; Day 28, 0.08 mg/Kg): 135 mg/dL
Urea ([2]; Day 28, 0.08 mg/Kg): 62 mg/dL
WBC ([2]; Day 28, 0.08 mg/Kg): 6.7 103/μl
ALP ([2]; Day 28, 0.8 mg/Kg): 252 U/L
ALT/SGPT ([2]; Day 28, 0.8 mg/Kg): 134 U/L
AST/SGOT ([2]; Day 28, 0.8 mg/Kg): 125 U/L
Cholesterol ([2]; Day 28, 0.8 mg/Kg): 240 mg/dL
Creatine ([2]; Day 28, 0.8 mg/Kg): 0.12 mg/dL
HCT ([2]; Day 28, 0.8 mg/Kg): 31.0%
HDL ([2]; Day 28, 0.8 mg/Kg): 128 mg/dL
HGB ([2]; Day 28, 0.8 mg/Kg): 11 g/dL
LDL ([2]; Day 28, 0.8 mg/Kg): 113 mg/dL
MCHC ([2]; Day 28, 0.8 mg/Kg): 34.0 g/dL
MCV ([2]; Day 28, 0.8 mg/Kg): 60.0 fL
PLT ([2]; Day 28, 0.8 mg/Kg): 1053 103/μl
RBC ([2]; Day 28, 0.8 mg/Kg): 5.1 106/μl
Total protein ([2]; Day 28, 0.8 mg/Kg): 6.1 g/dL
Triglyceride ([2]; Day 28, 0.8 mg/Kg): 132 mg/dL
Urea ([2]; Day 28, 0.8 mg/Kg): 50 mg/dL
WBC ([2]; Day 28, 0.8 mg/Kg): 5.6 103/μl
H&E skin histopathology finding ([3]; 0.08 mg/kg): Mild epidermal thickening with the increased number of hair follicles
hair follicle grade ([3]; 0.08 mg/kg): ++++ (graded on a scale ranging from 0 to 4 (++++))
H&E skin histopathology finding ([3]; 0.8 mg/kg): Mild epidermal thickening with the increased number of hair follicles
hair follicle grade ([3]; 0.8 mg/kg): ++++ (graded on a scale ranging from 0 to 4 (++++))
early onset of hair ([3]; topical): 12 days
Weight of nude mice (NU/J Foxn1nu) ([4]; 0.8 mg/kg (first group), DAY 1): 18.1 and 18.4 and 18.7 and 19.3 and 18.2
Weight of nude mice (NU/J Foxn1nu) ([4]; 0.8 mg/kg (first group), DAY 7): 20.1 and 20.5 (2×) and 19.3 and 19.8
Weight of nude mice (NU/J Foxn1nu) ([4]; 0.8 mg/kg (first group), DAY 14): 21.8 and 22.3 and 22.4 and 21.1 and 21.4
Weight of nude mice (NU/J Foxn1nu) ([4]; 0.8 mg/kg (first group), DAY 21): 23.7 and 23.9 and 24.1 and 23.1 and 23.3
Weight of nude mice (NU/J Foxn1nu) ([4]; 0.8 mg/kg (first group), DAY 28): 24.6 and 25.3 and 25.4 and 26.1 and 24.5
Weight of nude mice (NU/J Foxn1nu) ([4]; 0.8 mg/kg (second group so printed), DAY 1): 18.4 and 18.5 (2×) and 18.9 and 19.3
Weight of nude mice (NU/J Foxn1nu) ([4]; 0.8 mg/kg (second group so printed), DAY 7): 19.3 and 19.5 (2×) and 20.6 and 20.7
Weight of nude mice (NU/J Foxn1nu) ([4]; 0.8 mg/kg (second group so printed), DAY 14): 21.1 and 21.4 and 21.3 and 21.8 and 22.1
Weight of nude mice (NU/J Foxn1nu) ([4]; 0.8 mg/kg (second group so printed), DAY 21): 22.6 and 22.9 and 23.4 (2×) and 23.8
Weight of nude mice (NU/J Foxn1nu) ([4]; 0.8 mg/kg (second group so printed), DAY 28): 24.8 and 25.1 and 25.3 and 25.4 and 26.1
